Results taken from patent publication EP4417602A1, “SUBSTITUTED PYRAZOLE CARBOXAMIDES, SALTS THEREOF AND THEIR USE AS HERBICIDALLY ACTIVE SUBSTANCES” (Bayer AG, priority 2023, dated 2024).

Experiments:
[1] = test system: ECHCG; assay: A. Herbicidal pre-emergence action on harmful plants (Tables A); format: in vivo, Echinochloa crus-galli; conditions: visual grading after ca. 3 weeks vs untreated controls, 100% = plants have died off, 0% = as control plants
Source text: (§1) Seeds of mono- and dicotyledonous weed plants were sown in plastic pots (double sowings with one species of mono- and one species of dicotyledonous weed plants per pot), in sandy loam, and covered with soil. The compounds according to the invention, formulated in the form of wettable powders (WP) or as emulsifiable concentrates (EC), were applied to the surface of the covering soil as aqueous suspension or emulsion, with the addition of 0.5% of an additive, at an application rate of 6001 of water per hectare (converted). Following treatment, the pots were placed in a greenhouse and kept under optimum growth conditions for the test plants. The visual grading of the damage to the test plants was carried out after ca. 3 weeks in comparison to untreated controls (herbicidal effect in percent (%): 100% effect = plants have died off, 0% effect = as control plants). Tables A1 to A12, below, show the effects of selected compounds of the general formula (I) according to table 1 on various harmful plants and an application rate corresponding to 1280 g/ha or below obtained by the experimental procedure mentioned above. Table A1: pre-emergence activity at 1280g/ha against ABUTH in %

[2] = test system: ALOMY; assay: as above; format: in vivo, Alopecurus myosuroides
Source text: as §1

[3] = test system: LOLRI; assay: as above; format: in vivo, Lolium rigidum; conditions: visual grading after ca. 3 weeks vs untreated controls, 100% = plants have died off, 0% = as control plants
Source text: as §1

[4] = test system: POAAN; assay: as above; format: in vivo, Poa annua
Source text: as §1

[5] = test system: VERPE; assay: B. Herbicidal post-emergence action on harmful plants (Tables B); format: in vivo, Veronica persica; conditions: application rate 1280 g/ha; Table B11a
Protocol: (§2) Seeds of mono- and dicotyledonous weed plants were placed in plastic pots in sandy loam soil (doubly sown with in each case one species of mono- or dicotyledonous weed plants per pot), covered with soil and cultivated in a greenhouse under controlled growth conditions. 2 to 3 weeks after sowing, the test plants were treated at the one-leaf stage. The compounds of the invention, formulated in the form of wettable powders (WP) or as emulsion concentrates (EC), were applied onto the green parts of the plants as aqueous suspension or emulsion with addition of 0.5% additive at a water application rate of 600 liters per hectare (converted). After the test plants had been kept in the greenhouse under optimum growth conditions for about 3 weeks, the activity of the preparations was rated visually in comparison to untreated controls. For example, 100% activity = the plants have died, 0% activity = like control plants. Tables B1 to B12, below, show the effects of selected compounds of the general formula (I) according to table 1 on various harmful plants and an application rate corresponding to 1280 g/ha or below obtained by the experimental procedure mentioned above. Table B1a: post-emergence activity at 1280g/ha against ABUTH in %

[6] = test system: SETVI; assay: A. Herbicidal pre-emergence action on harmful plants (Tables A); format: in vivo, Setaria viridis; conditions: visual grading after ca. 3 weeks vs untreated controls, 100% = plants have died off, 0% = as control plants
Source text: as §1

[7] = test system: DIGSA; assay: as above; format: in vivo, Digitaria sanguinalis
Source text: as §1

[8] = test system: STEME; assay: as above; format: in vivo, Stellaria media; conditions: visual grading after ca. 3 weeks vs untreated controls, 100% = plants have died off, 0% = as control plants
Source text: as §1

[9] = test system: POAAN; assay: B. Herbicidal post-emergence action on harmful plants (Tables B); format: in vivo, Poa annua
Protocol: as §2

[10] = test system: MATIN; assay: A. Herbicidal pre-emergence action on harmful plants (Tables A); format: in vivo, Matricaria inodora
Source text: as §1

[11] = test system: AMARE; assay: as above; format: in vivo, Amaranthus retroflexus; conditions: application rate 1280 g/ha; visual grading after ca. 3 weeks vs untreated controls; 100% = plants have died off, 0% = as control plants
Source text: as §1

[12] = test system: ECHCG; assay: B. Herbicidal post-emergence action on harmful plants (Tables B); format: in vivo, Echinochloa crus-galli; conditions: application rate 1280 g/ha; Table B2a
Protocol: as §2

[13] = application rate 1280 g/ha, Table A9a
[14] = application rate 320 g/ha, Table A7b
[15] = application rate 1280 g/ha, visual grading after ca. 3 weeks vs untreated controls, 100% = plants have died off, 0% = as control plants
[16] = application rate 320 g/ha, Table A12b
[17] = application rate 1280 g/ha, Table A12a
[18] = application rate 1280 g/ha, Table B7a
[19] = application rate 80 g/ha, Table A7c
[20] = application rate 320 g/ha, Table A9b

COCc1nn(C)cc1C(=O)N1CCCC1Cc1ccccc1OC (racemic) [Example I-014]
pre-emergence activity against ECHCG ([1]; application rate 320 g/ha): 90%
pre-emergence activity against ECHCG ([1]; application rate 1280 g/ha): 100%
pre-emergence activity against ALOMY [2, 13]: 90%
pre-emergence activity against LOLRI ([3]; application rate 320 g/ha): 90%
pre-emergence activity against LOLRI ([3]; application rate 1280 g/ha): 100%
pre-emergence activity against POAAN [4, 14]: 100%
pre-emergence activity against POAAN [4, 15]: 100%
post-emergence activity against VERPE [5]: 90%
pre-emergence activity against SETVI ([6]; application rate 1280 g/ha): 90%

CCn1cc(C(=O)N2CCCC2Cc2ccccc2F)c(COC)n1 (racemic) [Example I-027]
pre-emergence activity against DIGSA [7, 16]: 90%
pre-emergence activity against DIGSA [7, 17]: 90%
pre-emergence activity against ECHCG ([1]; application rate 320 g/ha): 90%
pre-emergence activity against ECHCG ([1]; application rate 1280 g/ha): 90%
pre-emergence activity against STEME ([8]; application rate 1280 g/ha): 90%
pre-emergence activity against ALOMY [2, 13]: 90%
pre-emergence activity against LOLRI ([3]; application rate 1280 g/ha): 90%
pre-emergence activity against SETVI ([6]; application rate 320 g/ha): 100%
pre-emergence activity against SETVI ([6]; application rate 1280 g/ha): 100%

CCOCc1c(C(=O)N2CCCC2Cc2ccccc2F)cnn1C (single isomer, unassigned) [Example I-142]
pre-emergence activity against DIGSA [7, 16]: 90%
pre-emergence activity against DIGSA [7, 17]: 100%
post-emergence activity against POAAN [9, 18]: 90%
pre-emergence activity against ECHCG ([1]; application rate 80 g/ha): 90%
pre-emergence activity against ECHCG ([1]; application rate 320 g/ha): 90%
pre-emergence activity against ECHCG ([1]; application rate 1280 g/ha): 100%
pre-emergence activity against STEME ([8]; application rate 320 g/ha): 90%
pre-emergence activity against STEME ([8]; application rate 1280 g/ha): 90%
pre-emergence activity against ALOMY [2, 13]: 90%
pre-emergence activity against LOLRI ([3]; application rate 320 g/ha): 90%
pre-emergence activity against LOLRI ([3]; application rate 1280 g/ha): 100%
pre-emergence activity against POAAN [4, 19]: 90%
pre-emergence activity against POAAN [4, 14]: 100%
pre-emergence activity against POAAN [4, 15]: 100%
pre-emergence activity against MATIN [10, 15]: 90%
pre-emergence activity against SETVI ([6]; application rate 320 g/ha): 90%
pre-emergence activity against SETVI ([6]; application rate 1280 g/ha): 100%
pre-emergence activity against AMARE [11]: 90%

COCc1nn(C)cc1C(=O)N1CCCC1Cc1ccc(Cl)cc1Cl (racemic) [Example I-016]
post-emergence activity against ECHCG [12]: 90%
post-emergence activity against POAAN [9, 18]: 90%
pre-emergence activity against ECHCG ([1]; application rate 320 g/ha): 90%
pre-emergence activity against ECHCG ([1]; application rate 1280 g/ha): 100%
pre-emergence activity against POAAN [4, 14]: 100%
pre-emergence activity against POAAN [4, 15]: 100%
pre-emergence activity against SETVI ([6]; application rate 1280 g/ha): 90%

COCc1c(C(=O)N2CCCC2Cc2ccccc2C)cnn1C (single isomer, unassigned) [Example I-139]
pre-emergence activity against DIGSA [7, 16]: 90%
pre-emergence activity against DIGSA [7, 17]: 100%
pre-emergence activity against ECHCG ([1]; application rate 1280 g/ha): 100%
pre-emergence activity against LOLRI ([3]; application rate 1280 g/ha): 90%
pre-emergence activity against POAAN [4, 19]: 100%
pre-emergence activity against POAAN [4, 14]: 100%
pre-emergence activity against POAAN [4, 15]: 100%
pre-emergence activity against SETVI ([6]; application rate 1280 g/ha): 100%
pre-emergence activity against AMARE [11]: 90%

COCc1c(C(=O)N2CCCC2Cc2c(F)cccc2F)cnn1C (single isomer, unassigned) [Example I-126]
pre-emergence activity against DIGSA ([7]; application rate 80 g/ha, Table A12c): 90%
pre-emergence activity against DIGSA [7, 16]: 100%
pre-emergence activity against DIGSA [7, 17]: 100%
post-emergence activity against POAAN ([9]; application rate 80 g/ha, Table B7c): 90%
post-emergence activity against POAAN ([9]; application rate 320 g/ha, Table B7b): 90%
post-emergence activity against POAAN [9, 18]: 90%
pre-emergence activity against ECHCG ([1]; application rate 80 g/ha): 90%
pre-emergence activity against ECHCG ([1]; application rate 320 g/ha): 90%
pre-emergence activity against ECHCG ([1]; application rate 1280 g/ha): 90%
pre-emergence activity against STEME ([8]; application rate 320 g/ha): 90%
pre-emergence activity against STEME ([8]; application rate 1280 g/ha): 90%
pre-emergence activity against ALOMY [2, 20]: 90%
pre-emergence activity against ALOMY [2, 13]: 90%
pre-emergence activity against LOLRI ([3]; application rate 320 g/ha): 90%
pre-emergence activity against LOLRI ([3]; application rate 1280 g/ha): 100%
pre-emergence activity against POAAN [4, 19]: 90%
pre-emergence activity against POAAN [4, 14]: 90%
pre-emergence activity against POAAN [4, 15]: 100%
pre-emergence activity against MATIN [10, 15]: 90%
pre-emergence activity against SETVI ([6]; application rate 80 g/ha): 90%
pre-emergence activity against SETVI ([6]; application rate 320 g/ha): 90%
pre-emergence activity against SETVI ([6]; application rate 1280 g/ha): 100%

COCc1c(C(=O)N2CCCC2Cc2ccc(F)cc2F)cnn1C (racemic) [Example I-158]
pre-emergence activity against DIGSA [7, 17]: 100%
post-emergence activity against ECHCG [12]: 90%
post-emergence activity against POAAN [9, 18]: 100%
pre-emergence activity against ECHCG ([1]; application rate 1280 g/ha): 100%
pre-emergence activity against STEME ([8]; application rate 1280 g/ha): 90%
pre-emergence activity against ALOMY [2, 20]: 100%
pre-emergence activity against ALOMY [2, 13]: 100%
pre-emergence activity against LOLRI ([3]; application rate 1280 g/ha): 90%
pre-emergence activity against POAAN [4, 14]: 100%
pre-emergence activity against POAAN [4, 15]: 100%
pre-emergence activity against MATIN [10, 15]: 90%
pre-emergence activity against SETVI ([6]; application rate 1280 g/ha): 90%

COCc1nn(C)c(Cl)c1C(=O)N1CCCC1Cc1ccccc1F (single isomer, unassigned) [Example I-058]
pre-emergence activity against DIGSA [7, 16]: 90%
pre-emergence activity against DIGSA [7, 17]: 100%
post-emergence activity against POAAN [9, 18]: 90%
pre-emergence activity against ECHCG ([1]; application rate 320 g/ha): 90%
pre-emergence activity against ECHCG ([1]; application rate 1280 g/ha): 100%
pre-emergence activity against STEME ([8]; application rate 1280 g/ha): 90%
pre-emergence activity against LOLRI ([3]; application rate 1280 g/ha): 90%
pre-emergence activity against POAAN [4, 15]: 100%
pre-emergence activity against MATIN ([10]; pre-emergence, 1280 g/ha, 504 h): 90%
pre-emergence activity against SETVI ([6]; application rate 320 g/ha): 90%
pre-emergence activity against SETVI ([6]; application rate 1280 g/ha): 100%
pre-emergence activity against AMARE [11]: 100%

COCc1c(C(=O)N2CCCC2Cc2cc(F)ccc2F)cnn1C (single isomer, unassigned) [Example I-188]
pre-emergence activity against DIGSA [7, 16]: 90%
pre-emergence activity against DIGSA [7, 17]: 100%
post-emergence activity against POAAN [9, 18]: 90%
pre-emergence activity against ECHCG ([1]; application rate 320 g/ha): 90%
pre-emergence activity against ECHCG ([1]; application rate 1280 g/ha): 100%
pre-emergence activity against STEME ([8]; application rate 1280 g/ha): 90%
pre-emergence activity against ALOMY [2, 13]: 90%
pre-emergence activity against LOLRI ([3]; application rate 1280 g/ha): 100%
pre-emergence activity against POAAN [4, 19]: 90%
pre-emergence activity against POAAN [4, 14]: 100%
pre-emergence activity against POAAN [4, 15]: 100%
pre-emergence activity against MATIN [10, 15]: 90%
pre-emergence activity against SETVI ([6]; application rate 80 g/ha): 90%
pre-emergence activity against SETVI ([6]; application rate 320 g/ha): 100%
pre-emergence activity against SETVI ([6]; application rate 1280 g/ha): 100%
